From patent US20020143164A1, “Ras activator nucleic acid molecules, polypeptides and methods of use” (priority 1999, published 2002)

What was measured:
GRF4 [1] = molecular target: T1, GRF4 (Homo sapiens, UniProt Q9Y4G8); test: Activation of Ras and MAPK by cNMP analogues in GRF4-transfected HEK-293T cells; assay type: cell-based; conditions: HEK-293T cells transfected with GRF4; not in untransfected cells
T1 construct: Flag, HA or myc tags was added to the N-terminus of full length GRF4 using PCR; expressed in transfected cells; host or cells: HEK-293T
T1 sequence (Q9Y4G8 1-1499): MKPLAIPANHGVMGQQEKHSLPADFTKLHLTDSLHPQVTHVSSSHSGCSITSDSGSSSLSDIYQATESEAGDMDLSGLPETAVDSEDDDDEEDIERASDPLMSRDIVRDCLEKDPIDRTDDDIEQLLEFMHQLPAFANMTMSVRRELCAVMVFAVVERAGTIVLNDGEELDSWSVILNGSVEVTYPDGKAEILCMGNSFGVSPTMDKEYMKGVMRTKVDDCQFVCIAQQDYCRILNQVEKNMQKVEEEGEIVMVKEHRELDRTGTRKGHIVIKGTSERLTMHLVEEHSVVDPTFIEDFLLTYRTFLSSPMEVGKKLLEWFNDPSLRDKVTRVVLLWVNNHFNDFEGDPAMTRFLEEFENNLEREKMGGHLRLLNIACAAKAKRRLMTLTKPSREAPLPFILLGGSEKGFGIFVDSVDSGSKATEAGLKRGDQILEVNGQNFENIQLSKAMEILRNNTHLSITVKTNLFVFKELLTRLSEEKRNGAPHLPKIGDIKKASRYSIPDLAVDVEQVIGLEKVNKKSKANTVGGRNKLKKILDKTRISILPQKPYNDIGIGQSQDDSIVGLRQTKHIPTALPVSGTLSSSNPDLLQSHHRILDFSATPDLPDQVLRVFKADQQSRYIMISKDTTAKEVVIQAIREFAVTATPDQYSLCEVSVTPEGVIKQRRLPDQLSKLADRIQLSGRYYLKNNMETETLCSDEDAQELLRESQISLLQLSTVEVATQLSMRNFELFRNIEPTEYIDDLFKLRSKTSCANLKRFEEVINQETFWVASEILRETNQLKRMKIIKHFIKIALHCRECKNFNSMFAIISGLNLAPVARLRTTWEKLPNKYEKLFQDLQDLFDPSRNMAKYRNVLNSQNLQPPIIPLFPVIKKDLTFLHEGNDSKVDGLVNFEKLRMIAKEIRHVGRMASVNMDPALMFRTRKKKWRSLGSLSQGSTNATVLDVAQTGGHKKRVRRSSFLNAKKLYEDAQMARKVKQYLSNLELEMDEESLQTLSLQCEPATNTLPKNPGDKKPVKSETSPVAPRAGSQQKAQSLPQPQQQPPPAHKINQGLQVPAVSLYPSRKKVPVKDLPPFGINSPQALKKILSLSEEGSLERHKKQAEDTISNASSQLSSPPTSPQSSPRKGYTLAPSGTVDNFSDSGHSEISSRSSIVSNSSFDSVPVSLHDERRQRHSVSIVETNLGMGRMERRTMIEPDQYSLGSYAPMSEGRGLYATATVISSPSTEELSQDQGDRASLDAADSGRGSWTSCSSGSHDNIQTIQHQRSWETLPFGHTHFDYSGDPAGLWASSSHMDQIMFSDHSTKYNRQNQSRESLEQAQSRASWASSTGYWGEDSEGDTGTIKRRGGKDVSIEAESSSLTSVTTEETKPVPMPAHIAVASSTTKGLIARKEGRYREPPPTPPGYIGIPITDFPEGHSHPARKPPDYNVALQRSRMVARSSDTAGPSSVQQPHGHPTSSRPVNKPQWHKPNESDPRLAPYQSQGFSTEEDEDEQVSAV
Description: The small GTPase Ras controls the MAPK pathway and exerts its effects on cellular processes primarily through this pathway. MAPK is a downstream kinase of Ras and thus, Ras activation leads to MAPK activation (FIG. 6A). Therefore, we show the GRF4 effects on MAPK activation using assays in which levels of active MAPK in cells is determined using antibodies recognizing phosphorylated (active) MAPK.

GRF4 [2] = molecular target: T1, GRF4; test: Ras activation assay in living cells (GST-Raf1-RBD pull-down), treatment of GRF4-transfected cells; assay type: cell-based; conditions: for Enhancement of activation of Ras by GRF4 by membrane permeable cNMP analogue / GRF4 stimulation of Ras activation enhanced following treatment: HEK-293T cells transfected with Flag-GRF4; for Enhancement of activation of Ras by GRF4 by membrane permeable cNMP analogue: analogue 500 μM; for cAMP stimulation of GRF4-mediated activation of Ras in the presence of PKA inhibitor: H-89 10 μM or Rp-8-Br-cAMPS 50 μM, then 8-Br-cAMP 500 μM; for cAMP stimulation of GRF4-mediated activation of Ras in the presence of PKA inhibitor / Effect of PKG inhibitor on 8-Br-cGMP enhanced activation of Ras by GRF4: 30 min; for Effect of PKG inhibitor on 8-Br-cGMP enhanced activation of Ras by GRF4: H-8 5 μM or Rp-8-Br-cGMPS 25 μM, then 8-Br-cGMP 500 μM
Description: Cells were then lysed and lysate incubated with immobilized Ras binding domain (RBD) of Raf1 (GST-Raf1-RBD), which binds activated (GTP-bound) Ras. Co-precipitated activated ras was then detected with anti Ras antibodies (Quality Biotech) (upper panel). Lower 2 panels depict the amounts of total endogenous Ras and of the transfected GRF4 (detected with anti Ras and anti Flag antibodies, respectively).
Cells were transfected (or not) with Flag-GRF4 and serum-starved overnight as in (a) above, pre-treated (or not) with the PKG inhibitors H8 (5 μM) or Rp-cGMPS (25 μM) and then treated (or not) with the cGMP analogue 8-Br-cGMP (500 μM), as in (a) above. Activated Ras was then precipitated with GST-Raf1-RBD (upper panel), as in (a). Lower panels show total endogenous Ras and GRF4 expressed in the cells.
Parallel treatments with 8-Br-cAMP or 8-Br-cGMP were used as positive controls. Lysates of treated cells were then incubated with GST-Raf1-RBD to precipitate activated Ras, and immunoblotted with anti Ras antibodies, as above (upper panel). Lower panels are as in (a) and (b) above.
The membrane permeable 8-Br-cAMP and 8Br-cGMP analogs (Sigma) were used at a concenreation of 500 μM for 15 min. Inhibitors of PKA: H-89 and Rp-8-Br-cAMPS (CalBiochem) were used at 10 μM and 50 μM, respectively, for 30 min. Inhibitors of PKG: H-8 and Rp-8-Br-cGMPS (CalBiochem) were used at 5 μM and 25 μM, respectively, for 30 min. Activators of Adenylyl Cyclase, Forskolin (Sigma), and activator of Guanylyl Cyclase, YC-1 (CalBiochem), were used at 50 μM and 100 μM, respectively, for 15 min.
(§1) HEK-293T cells were transfected as above, serum starved overnight and then subjected to various treatments, as described in the text. Cells were lysed with lysis buffer (25 mM Hepes, pH 7.5, 150 mM NaCl, 1% NP-40, 0.25% Na deoxycholate, 10% glycerol, 25 mM NaF, 10 mM MgCl2, 1 mM EDTA, 1 mM NaVO4, […]) and the level of Ras.GTP or Rap. GTP in the lysates was determined using activation specific probes as described. Briefly, to determined the levels of active Ras (Ras-GTP) in cell, sepharose-bound GST fusion protein of the Ras-binding domain (RBD) of Raf-1 (GST-Raf1-RBD; Upstate Biotechnology Inc.) was used to precipitate Ras-GTP from cell lysates, and the amount of Ras-GTP determined by immunoblotting with anti Ras antibodies (Quality Biotech). Similarly, to determine the level of Rap1-GTP in cell lysates, sepharose-bound GST fusion proteins of the Rap1-binding domain of RaIGDS (GST-RaIGDS-RBD) were used to precipitate Rap1-GTP, which was then detected on a Western blot using anti-Rap1 antibodies (Transduction Lab).

Rap1 = Rap1 activation assay in living cells (GST-RalGDS-RBD pull-down); assay type: cell-based, human; conditions: HEK-293T cells expressing GRF4
Description: as §1

GRF4-cNMP-BD = molecular target: T2, GRF4-cNMP-BD (Homo sapiens, UniProt Q9Y4G8); test: cAMP-agarose binding assay; conditions: data not shown
T2 construct: The GST-GRF4-cNMP-BD (residue 101-303); made in house
T2 sequence (Q9Y4G8 101-303): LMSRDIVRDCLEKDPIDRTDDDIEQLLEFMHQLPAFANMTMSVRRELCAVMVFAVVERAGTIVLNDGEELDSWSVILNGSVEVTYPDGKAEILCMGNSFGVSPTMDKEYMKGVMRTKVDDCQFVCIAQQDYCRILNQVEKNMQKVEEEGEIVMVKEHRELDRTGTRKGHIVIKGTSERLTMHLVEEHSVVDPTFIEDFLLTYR
Description: Right and left panels in (b) represent two separate experiments.
Following extensive washes in HNTG (20 mM Hepes, pH 7.5, 150 mM NaCl, 0.1% Triton ×100, 10% Glycerol) proteins were eluted off beads with sample buffer, separated on SDS-PAGE and immunoblotted with either anti GST antibodies for the in vitro binding experiments, or with anti GRF4 antibodies for the pull down experiments.

Compound: Nc1nc2c(nc(Br)n2[C@@H]2O[C@@H]3COP(=O)(O)O[C@H]3[C@H]2O)c(=O)[nH]1 [8-Br-cGMP]
- Activation of Ras and of MAPK in GRF4-expressing cells (GRF4 [1]): leads to activation
- Enhancement of activation of Ras by GRF4 by membrane permeable cNMP analogue (GRF4 [2]; 15 min): greatly enhance

Compound: Nc1ncnc2c1nc(Br)n2C1OC2COP(O)(=S)OC2C1O (single isomer, unassigned) [Rp8-Br-cAMPS, Adenosine 3′,5′-cyclic monophosphorothioate, 8-Bromo-, Rp-isomer]
- cAMP stimulation of GRF4-mediated activation of Ras in the presence of PKA inhibitor (GRF4 [2]): still able to stimulate

Compound: CNCCNS(=O)(=O)c1cccc2cnccc12 [H-8, N-[2-(methylamino)ethyl]-5-isoquinolinesulfonamide]
- Effect of PKG inhibitor on 8-Br-cGMP enhanced activation of Ras by GRF4 (GRF4 [2]): lack of effect

Compound: Nc1nc2c(nc(Br)n2[C@@H]2O[C@@H]3COP(O)(=S)O[C@H]3[C@H]2O)c(=O)[nH]1 (single isomer, unassigned) [RP8-Br-cGMPS, Guanosine 3′,5′-cyclic monophosphorothioate, 8-Bromo-, Rp-isomer]
- Effect of PKG inhibitor on 8-Br-cGMP enhanced activation of Ras by GRF4 (GRF4 [2]): lack of effect

Compound: Nc1ncnc2c1nc(Br)n2[C@@H]1O[C@@H]2COP(=O)(O)O[C@H]2[C@H]1O [8-Br-cAMP]
- Activation of Ras and of MAPK in GRF4-expressing cells (GRF4 [1]): leads to activation
- GRF4 stimulation of Ras activation enhanced following treatment (GRF4 [2]; 8-Br-cAMP 500 μM 15 min plus H-89 10 μM 30 min pre-treatment): 3.5 fold
- GRF4 stimulation of Ras activation enhanced following treatment (GRF4 [2]; 8-Br-cAMP 500 μM, 15 min): 3.9 fold
- Enhancement of activation of Ras by GRF4 by membrane permeable cNMP analogue (GRF4 [2]; 15 min): greatly enhanced
- Stimulation of GRF4-mediated activation of Rap1 (Rap1): not stimulated

Compound: Nc1nc2c(ncn2[C@@H]2O[C@@H]3COP(=O)(O)O[C@H]3[C@H]2O)c(=O)[nH]1 [cGMP, reference compound]
- Competition of cAMP binding to the GRF4-cNMP-BD (GRF4-cNMP-BD): effectively competed

Compound: O=S(=O)(NCCNCC=Cc1ccc(Br)cc1)c1cccc2cnccc12 [H-89, N-[2-((Pbromocinnamyi)amino)ethyl]-5-isoquinoiinesulfonamide]
- cAMP stimulation of GRF4-mediated activation of Ras in the presence of PKA inhibitor (GRF4 [2]): still able to stimulate
